Assay results reported in patent publication US6117886A, “Tetrazole derivatives” (Kowa Co., Ltd., priority 1997, dated 2000).
Where a name gives a salt, the structure may show the parent alone.

Columns and labels:
LTD4 Receptor = biological target: T1, LTD4 Receptor (Cavia porcellus, UniProt Q2NNR5); test: LTD4 Receptor Binding Inhibitory Test; parameters: species or system guinea pig
T1 construct: guinea pig lung protein; from tissue; host or cells: guinea pig lung
T1 sequence (Q2NNR5 1-340): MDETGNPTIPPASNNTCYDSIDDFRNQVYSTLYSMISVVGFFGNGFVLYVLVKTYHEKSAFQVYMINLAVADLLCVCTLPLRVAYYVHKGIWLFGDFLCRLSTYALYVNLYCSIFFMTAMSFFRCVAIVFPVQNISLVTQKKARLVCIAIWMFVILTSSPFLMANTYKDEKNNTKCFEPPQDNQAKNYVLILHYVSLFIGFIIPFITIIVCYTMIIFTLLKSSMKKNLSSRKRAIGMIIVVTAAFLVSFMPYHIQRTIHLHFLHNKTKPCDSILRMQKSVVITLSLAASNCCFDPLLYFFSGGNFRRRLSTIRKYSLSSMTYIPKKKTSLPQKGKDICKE
Protocol: Reaction was stopped by addition of ice-cold Tris-HCl/NaCl (10 mM/100 mM, pH 7.5) buffer, and immediately thereafter, the reaction mixture was filtered by use of a Wattman CF/C filter. The filter was washed twice, each time with 20 ml ice-cold buffer. Radioactivity of the residue was measured by use of a liquid scintillation counter. […] In a saturation test, 2 μM leukotriene D4 was used for the measurement of the amount of non-specific binding.

H1 Receptor = biological target: T2, H1 Receptor (Cavia porcellus, UniProt P31389); test: H1 Receptor Binding Inhibitory Test; parameters: species or system guinea pig
T2 construct: guinea pig cerebral membrane protein; from tissue; host or cells: guinea pig cerebral membranes
T2 sequence (P31389 whole entry): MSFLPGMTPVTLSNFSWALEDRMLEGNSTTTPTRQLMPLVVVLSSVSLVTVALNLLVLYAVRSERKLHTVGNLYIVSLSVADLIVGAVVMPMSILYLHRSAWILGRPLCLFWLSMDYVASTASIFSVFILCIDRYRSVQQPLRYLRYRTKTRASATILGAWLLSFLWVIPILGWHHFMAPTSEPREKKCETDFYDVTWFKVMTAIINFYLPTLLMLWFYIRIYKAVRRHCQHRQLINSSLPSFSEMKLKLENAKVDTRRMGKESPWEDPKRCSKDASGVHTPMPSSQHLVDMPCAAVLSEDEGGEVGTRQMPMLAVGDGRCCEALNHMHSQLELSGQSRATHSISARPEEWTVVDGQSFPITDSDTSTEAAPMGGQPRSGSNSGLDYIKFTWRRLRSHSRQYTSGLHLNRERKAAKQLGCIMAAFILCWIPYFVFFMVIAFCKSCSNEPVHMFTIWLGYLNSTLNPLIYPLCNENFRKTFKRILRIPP
Protocol: Reaction was stopped by addition of ice-cold phosphate buffer, and immediately thereafter, the reaction mixture was filtered by use of a Wattman CF/C filter. The filter was washed twice, each time with 20 ml ice-cold buffer. Radioactivity of the residue was measured by use of a liquid scintillation counter. From the value as obtained when a test compound was not added and values as obtained when the test compound was added at different concentrations, there was determined a dose-response curve representing suppression action of the test compound, from which a 50% inhibitory concentration (IC50) was obtained. Based on the IC50 value and by use of the Cheng-Prusoff equation, a dissociation constant (KD) was calculated (Table 9). In a saturation test, 10^-4 M R(-)-dimetindene was used for the measurement of the amount of non-specific binding.

[1] = system: guinea pig ileum, contraction induced with LTD4; test: Antileukotriene action, in vitro test on isolated ileum (contraction induced with LTD4); settings: contraction induced with 10^-8 M LTD4; 29° C; read-out: Anti-LTD4 action IC50
[2] = biological target: guinea pig ileum, contraction in response to histamine (Cavia porcellus, UniProt P31389); test: Antihistaminic action, in vitro test on isolated ileum (contraction in response to histamine); settings: 10^-8 to 10^-4 M histamine dose-response curve, 30 min after test compound, 29° C; for Kb: read-out: Anti-histaminic action, pA2 (converted)
Chain of guinea pig ileum, contraction in response to histamine (P31389 whole entry): as above

Row | Kd (LTD4 Receptor) [nM] | Kd (H1 Receptor) [nM] | IC50 [1] [nM] | Anti-histaminic action, pD'2 [2] | Kb [2] [nM] | SMILES
1 | 114 | 2960 | 90 | 5.53 |  | COc1ccc2[nH]c(=O)c(-c3nnn(Cc4cccc(OCc5ccc6ccccc6n5)c4)n3)cc2c1 [Example 1, 6-methoxy-3-{2-[3-(2-quinolylmethoxy)benzyl]tetrazolyl}quinolin-2-one]
2 |  |  | 250 |  | 4170 | COc1ccc2[nH]c(=O)c(-c3nnnn3Cc3cccc(OCc4ccc5ccccc5n4)c3)cc2c1 [Example 2, 6-methoxy-3-{1-[3-(2-quinolylmethoxy)benzyl]tetrazolyl}quinolin-2-one]
3 | 8110 | 3290 | 1100 |  | 40.7 | CCOCCn1c(COc2ccc(Cn3nnc(-c4cc5cc(OC)ccc5[nH]c4=O)n3)cc2)nc2ccccc21 [Example 6, 3-{2-{4-[N-(2-Ethoxyethyl)benzimidazol-2-ylmethoxy]benzyl}tetrazolyl}-6-methoxyquinolin-2-one]
4 | 143 | 9380 |  |  |  | Cn1c(COc2cccc(Cn3nnc(-c4cc5ccccc5[nH]c4=O)n3)c2)nc2ccccc21 [Example 8, 3-{2-[3-(N-Methylbenzimidazol-2-ylmethoxy)benzyl]tetrazolyl}quinolin-2-one]
5 | 320 | 13700 |  |  |  | Cn1c(COc2cccc(Cn3nnnc3-c3cc4ccccc4[nH]c3=O)c2)nc2ccccc21 [Example 9, 3-{1-[3-(N-Methylbenzimidazol-2-ylmethoxy)benzyl]tetrazolyl}quinolin-2-one]
6 | 509 | 22800 |  |  |  | CC(C)(C)c1ccc2[nH]c(=O)c(-c3nnnn3Cc3cccc(OCc4ccc5ccccc5n4)c3)cc2c1 [Example 18, 6-tert-Butyl-3-{1-[3-(2-quinolylmethoxy)-benzyl]tetrazolyl}quinolin-2-one]
7 | 364 | 30100 |  |  |  | O=c1[nH]c2ccc(O)cc2cc1-c1nnn(Cc2ccc(OCc3ccc4ccccc4n3)cc2)n1 [Example 22, 6-Hydroxy-3-{2-[4-(2-quinolylmethoxy)benzyl]-tetrazolyl}quinolin-2-one]
8 | 205 | 9510 |  |  |  | COc1ccc2[nH]c(=O)c(-c3nnn(Cc4ccc(OCc5ccc6ccccc6n5)cc4)n3)cc2c1 [Example 24, 6-Methoxy-3-{2-[4-(2-quinolylmethoxy)benzyl]-tetrazolyl}quinolin-2-one]
9 | 5.86 | 13900 |  |  |  | COc1ccc2[nH]c(=O)c(-c3nnnn3Cc3ccc(OCc4ccc5ccccc5n4)cc3)cc2c1 [Example 25, 6-Methoxy-3-{1-[4-(2-quinolylmethoxy)benzyl]-tetrazolyl}quinolin-2-one]
10 | 179 | 89500 | 179 | 5.24 |  | O=c1[nH]c2ccccc2cc1-c1nnn(Cc2cccc(OCc3ccc4ccccc4n3)c2)n1 [Example 26, 3-{2-[3-(2-Quinolylmethoxy)benzyl]-tetrazolyl}quinolin-2-one]
11 | 21 | 13900 |  |  |  | O=c1[nH]c2ccc(O)cc2cc1-c1nnn(Cc2cccc(OCc3ccc4ccccc4n3)c2)n1 [Example 28, 6-Hydroxy-3-{2-[3-(2-quinolylmethoxy)benzyl]-tetrazolyl}quinolin-2-one]
12 | 13.6 | 57200 |  |  |  | O=c1[nH]c2ccc(O)cc2cc1-c1nnnn1Cc1cccc(OCc2ccc3ccccc3n2)c1 [Example 29, 6-Hydroxy-3-{1-[3-(2-quinolylmethoxy)benzyl]-tetrazolyl}quinolin-2-one]
13 |  |  | 160 | 5.52 |  | COc1ccc2c(c1)cc(-c1nnn(Cc3cccc(OCc4ccc5ccccc5n4)c3)n1)c(=O)n2C [Example 38, 6-methoxy-1-methyl-3-{2-[3-(2-quinolylmethoxy)benzyl]tetrazolyl}quinolin-2-one]
14 |  |  |  |  | 30.2 | CN(C)CCn1c(=O)c(-c2nnn(Cc3cccc(OCc4ccc5ccccc5n4)c3)n2)cc2cc(O)ccc21 [Example 39, 1-Dimethylaminoethyl-6-hydroxy-3-{2-[3-(2-quinolylmethoxy)benzyl]tetrazolyl}quinolin-2-one]
15 |  |  |  |  | 251 | CN(C)CCn1c(=O)c(-c2nnnn2Cc2cccc(OCc3ccc4ccccc4n3)c2)cc2cc(O)ccc21 [Example 40, 1-Dimethylaminoethyl-6-hydroxy-3-{1-[3-(2-quinolylmethoxy)benzyl]tetrazolyl}quinolin-2-one]
16 |  |  |  | 5.58 |  | COc1ccc2c(c1)cc(-c1nnn(Cc3cccc(OCc4ccc5ccccc5n4)c3)n1)c(=O)n2CCN(C)C [Example 41, 1-Dimethylaminoethyl-6-methoxy-3-{2-[3-(2-quinolylmethoxy)benzyl]tetrazolyl}quinolin-2-one]
17 |  |  |  |  | 55 | CN(C)CCCn1c(=O)c(-c2nnn(Cc3cccc(OCc4ccc5ccccc5n4)c3)n2)cc2cc(O)ccc21 [Example 42, 1-Dimethylaminopropyl-6-hydroxy-3-{2-[3-(2-quinolylmethoxy)benzyl]tetrazolyl}quinolin-2-one]
18 |  |  |  |  | 174 | CN(C)CCn1c(=O)c(-c2nnn(Cc3cccc(C=Cc4ccc5ccccc5n4)c3)n2)cc2cc(O)ccc21 [Example 43, 1-Dimethylaminoethyl-6-hydroxy-3-{2-[3-(2-quinolylethenyl)benzyl]tetrazolyl}quinolin-2-one]
19 |  |  | 640 |  | 21.9 | COc1ccc2c(c1)cc(-c1nnn(Cc3cccc(OCc4ccc5ccccc5n4)c3)n1)c(=O)n2CCCN1CCN(Cc2ccc3ccccc3n2)CC1 [Example 45, 1-{3-[4-(2-quinolylmethyl)-1-piperazinyl]propyl}-6-methoxy-3-(2-[3-(2-quinolylmethoxy)benzyl]tetrazolyl)quinolin-2-one dihydrochloride]
20 |  |  |  |  | 20 | COc1ccc2c(c1)cc(-c1nnn(Cc3cccc(OCc4ccc5ccccc5n4)c3)n1)c(=O)n2CCCCN1CCN(Cc2ccc3ccccc3n2)CC1 [Example 47, 6-Methoxy-1-{4-[4-(2-quinolylmethyl)-piperazinyl]butyl}-3-{2-[3-(2-quinolylmethoxy)benzyl]tetrazolyl}quinolin-2-one dimalate]
21 |  |  |  |  | 115 | COc1ccc2c(c1)cc(-c1nnn(Cc3cccc(OCc4ccc5ccccc5n4)c3)n1)c(=O)n2CCCN1CCN(Cc2ccccn2)CC1 [Example 48, 6-Methoxy-1-{3-[4-(2-pyridylmethyl)-piperazinyl]propyl}-3-{2-[3-(2-quinolylmethoxy)benzyl]tetrazolyl}quinolin-2-one dihydrochloride]
22 |  |  | 1300 |  | 912 | CN1CCN(CCCOc2ccc3c(c2)cc(-c2nnn(Cc4cccc(OCc5ccc6ccccc6n5)c4)n2)c(=O)n3C)CC1 [Example 52, 1-methyl-6-[3-(4-metylpiperazinyl)propyl]oxy-3-{2-[3-(2-quinolylmethoxy)benzyl]tetrazolyl}quinolin-2-one trihydrochloride]
23 | 22.1 | 61900 |  |  |  | NCC(=O)Oc1ccc2[nH]c(=O)c(-c3nnn(Cc4cccc(OCc5ccc6ccccc6n5)c4)n3)cc2c1 [Example 64, 6-Glycyloxy-3-{2-[3-(2-quinolylmethoxy)-benzyl]tetrazolyl}quinolin-2-one]

Row | SMILES | Kd (LTD4 Receptor) [nM] | Kd (H1 Receptor) [nM] | IC50 [1] [nM] | Anti-histaminic action, pD'2 [2] | Kb [2] [nM]
24 | CC(=O)Oc1ccc2[nH]c(=O)c(-c3nnn(Cc4ccc(OCc5ccc6ccccc6n5)cc4)n3)cc2c1 [Example 56, 6-Acetoxy-3-{2-[4-(2-quinolylmethoxy)benzyl]-tetrazolyl}quinolin-2-one] | 336 | 84700 |  |  | 
25 | CC(=O)Oc1ccc2[nH]c(=O)c(-c3nnn(Cc4cccc(OCc5ccc6ccccc6n5)c4)n3)cc2c1 [Example 58, 6-Acetoxy-3-{2-[3-(2-quinolylmethoxy)benzyl]-tetrazolyl}quinolin-2-one] | 38.2 | 480000 |  |  | 
